From PubChem BioAssay AID1259345 come the findings set out here.

Molecules are shown by their SMILES. Activity calls are given as the source filed them.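 How the source made its calls: active means IC50 below a set limit; inactive means the rest.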

The experiment has as its target A2780 TERC promoter luciferase reporter, 16 h. Kind of experiment: TERC promoter activity modulators, SAR follow-up, cell-based, luciferase reporter, human (AID 1259345). On the technique in general: A reporter such as luciferase makes a cellular process visible.

Take `Cc1nc2cc(-c3ccc(C#CCO)cc3)nn2c(C)c1CCC(=O)O`: the IC50 entry is “inactive”.

Take `Cc1nc2cc(-c3cccc(Br)c3)nn2c(C)c1CCC(=O)O`: the IC50 entry was “inactive”.
